# Laboratory results from patent US20170122958A1, “Enzymes Functional Probes” (University of Dundee, priority 2013, published 2017).
# “Also recorded” adds a separate entry of the source. Like-named read-outs stand apart in the source and are kept apart here.
# Tests used:
# [1] = molecular target: T1, Brd2(1)*(Trp097His) (Homo sapiens, UniProt P25440, W97H); assay: DSF thermal shift; assay type: binding; conditions: mutant
# T1 construct: Plasmids of the eight single BET bromodomain constructs Brd2(1), Brd2(2), Brd3(1), Brd3(2); His6 (N); made in house; host or cells: E. coli BL21(DE3)
# [2] = molecular target: T2, Brd2(1) (Homo sapiens, UniProt P25440); assay: DSF thermal shift; assay type: binding; conditions: wild type
# T2 construct: Plasmids of the eight single BET bromodomain constructs Brd2(1), Brd2(2), Brd3(1), Brd3(2); His6 (N); made in house; host or cells: E. coli BL21(DE3)
# [3] = molecular target: T3, Brd2(2)*(Trp370Phe) (Homo sapiens, UniProt P25440, W370F); assay: DSF thermal shift; assay type: binding; conditions: mutant
# T3 construct: Plasmids of the eight single BET bromodomain constructs Brd2(1), Brd2(2), Brd3(1), Brd3(2); His6 (N); made in house; host or cells: E. coli BL21(DE3)
# [4] = molecular target: T4, Brd2(1)*(Trp097Phe) (Homo sapiens, UniProt P25440, W97F); assay: DSF thermal shift; assay type: binding; conditions: mutant
# T4 construct: Plasmids of the eight single BET bromodomain constructs Brd2(1), Brd2(2), Brd3(1), Brd3(2); His6 (N); made in house; host or cells: E. coli BL21(DE3)
# [5] = molecular target: T5, Brd2(2) (Homo sapiens, UniProt P25440); assay: DSF thermal shift; assay type: binding; conditions: wild type
# T5 construct: Plasmids of the eight single BET bromodomain constructs Brd2(1), Brd2(2), Brd3(1), Brd3(2); His6 (N); made in house; host or cells: E. coli BL21(DE3)
# [6] = molecular target: T6, Brd2(2)*(Trp370His) (Homo sapiens, UniProt P25440, W370H); assay: DSF thermal shift; assay type: binding; conditions: mutant
# T6 construct: Plasmids of the eight single BET bromodomain constructs Brd2(1), Brd2(2), Brd3(1), Brd3(2); His6 (N); made in house; host or cells: E. coli BL21(DE3)
# [7] = molecular target: T3, Brd2(2)*(Trp370Phe); assay: ITC reverse titration of protein into compound; assay type: binding
# Method: For this reason, these molecules were not selected for further experimentation. […] Results can be seen in FIG. 7.
# (§1) ITC experiments were carried out on a ITC200 instrument from MicroCal™ Experiments were conducted at 3 different temperatures 15° C., 25° C. and 30° C., while stirring at 1000 rpm. Buffers of proteins, peptide and compounds were matched to 20 mM HEPES pH 7.5 at 25° C. and 100 mM NaCl. Frozen protein was buffer exchanged as described for the DSF experiments. Each titration comprised 1 initial injection of 0.4 μl lasting 0.8 s, followed by 19 injections of 2 μl lasting 4 s each at 2 min intervals. The initial injection was discarded during data analysis. Standard and reverse titrations were conducted depending on the binding partners.
# Reverse titrations were conducted to test the binding of the known ligands and the novel chemical probes to the wild types and the mutants. Experiments were carried out either at 25° C. or 30° C. […]
# (§2) All the data was fitted to a single binding site model using the Microcal LLC ITC200 Origin software provided by the manufacturer to yield enthalpies of binding (ΔH) and binding constants (Kas). Further thermodynamic parameters were calculated from these values (changes in entropy ΔS, changes in free energy AG and dissociation constants (Kds)).
# [8] = molecular target: T5, Brd2(2); assay: ITC reverse titration of protein into compound; assay type: binding; conditions: ITC 25° C.
# Method: as §1
# (§3) Reverse titrations were conducted to test the binding of the known ligands and the novel chemical probes to the wild types and the mutants. Experiments were carried out either at 25° C. or 30° C. […] In cases where the compound was solubilized in dimethyl sulfoxide, DMSO concentration was adjusted to 1% both in the syringe and in the cell.
# as §2
# [9] = molecular target: T7, Brd2(2)*(Met438-Ala) (Homo sapiens, UniProt P25440, M438A); assay: ITC reverse titration of protein into compound; assay type: binding
# T7 construct: Plasmids of the eight single BET bromodomain constructs Brd2(1), Brd2(2), Brd3(1), Brd3(2); His6 (N); made in house; host or cells: E. coli BL21(DE3)
# Method: as §1
# Reverse titrations were conducted to test the binding of the known ligands and the novel chemical probes to the wild types and the mutants. […]. In cases where the compound was solubilized in dimethyl sulfoxide, DMSO concentration was adjusted to 1% both in the syringe and in the cell.
# as §2
# [10] = molecular target: T8, Brd2(1)*(Met165Ala) (Homo sapiens, UniProt P25440, M165A); assay: ITC reverse titration of protein into compound; assay type: binding; design: Plasmids of the eight single BET bromodomain constructs Brd2(1), Brd2(2), Brd3(1), Brd3(2), Brd4(1), Brd4(2), Brdt(1) and Brdt(2); His6 (N); made in house; host or cells: E. coli BL21(DE3)
# Method: as §1
# Reverse titrations were conducted to test the binding of the known ligands and the novel chemical probes to the wild types and the mutants. Experiments were carried out either at 25° C. or 30° C. For strong binders, a concentration of 150-200 μM of the protein was injected into a solution of 15-20 μM compound. […] In cases where the compound was solubilized in dimethyl sulfoxide, DMSO concentration was adjusted to 1% both in the syringe and in the cell.
# as §2
# [11] = molecular target: T2, Brd2(1); assay: ITC reverse titration of protein into compound; assay type: binding; conditions: ITC 25° C.; read-out: Kd wild type Brd2(1)
# Method: as §1, §3, §2
# [12] = molecular target: T8, Brd2(1)*(Met165Ala); assay: DSF thermal shift; assay type: binding; design: Plasmids of the eight single BET bromodomain constructs Brd2(1), Brd2(2), Brd3(1), Brd3(2); His6 (N); made in house; host or cells: E. coli BL21(DE3); conditions: mutant
# Method: (§4) DSF assays were performed on a LightCycler®480 from Roche or a Mx3005P Real Time PCR machine from Stratagene. Prior to DSF assays, frozen proteins were buffer exchanged using Vivaspin®6 concentrators with a 10 kDa cutoff on a Centrifuge 5430 from Eppendorf at a speed of 6000×g to remove glycerol and to buffer the proteins in 20 mM HEPES pH 7.5 at 25° C. and 100 mM NaCl. SYPRO®Orange from Invitrogen Molecular Probes® was used as a reporter dye to monitor the denaturing process of the proteins. Samples were assayed on a 96-well plate with final protein concentrations of 2 μM for the LightCycler®480 and 6 μM for Mx3005P. Compounds were added at a final concentration of 10 μM for the LightCycler®480 and 30 μM for Mx3005P, while the tetra acetylated histone peptide was added to a final concentration of 100 μM and 300 μM respectively. […] The temperature was raised with a step of 0.6° C. per minute from 37° C. to 95° C. with the LightCycler®480 collecting 39 measurements per ° C., and 1° C. per minute from 25° C. to 95° C. with Mx3005P, collecting fluorescence readings at the end of each interval. Each sample was run in triplicates.
# (§5) Collected data was analysed by IGOR Pro 6, a scientific software tool from Wave Metrics, Inc. Analysis was done following the recommendations of Niesen et al.. Fluorescence intensity was plotted as a function of temperature, generating a sigmoidal curve described by a two-state transition from folded to unfolded protein. Curves were fitted by the following sigmoidal equation: […]
# (§6) A1 and A2 are the values of minimum and maximum intensities, respectively, x0 is the inflection point and dx is the rate. Fitted curves were differentiated in IGOR Pro 6 and the maximum of the first derivative was identified using the same program. These values correspond to the inflection points of the transition curves and thus to the melting temperatures of the proteins (Tm).
# [13] = Solubility observations; conditions: observation in words
# [14] = molecular target: T9, Brd2(1)*(Met165-Leu) (Homo sapiens, UniProt P25440, M165L); assay: DSF thermal shift; assay type: binding; conditions: mutant
# T9 construct: Plasmids of the eight single BET bromodomain constructs Brd2(1), Brd2(2), Brd3(1), Brd3(2); His6 (N); made in house; host or cells: E. coli BL21(DE3)
# Method: as §4, §5, §6
# [15] = molecular target: T10, Brd2(2)*(Met438-Leu) (Homo sapiens, UniProt P25440, M438L); assay: DSF thermal shift; assay type: binding; conditions: mutant
# T10 construct: Plasmids of the eight single BET bromodomain constructs Brd2(1), Brd2(2), Brd3(1), Brd3(2); His6 (N); made in house; host or cells: E. coli BL21(DE3)
# Method: as §4, §5, §6
# [16] = molecular target: T7, Brd2(2)*(Met438-Ala); assay: DSF thermal shift; assay type: binding; conditions: mutant
# Method: as §4, §5, §6
# [17] = system: Brd2 wild types; assay: DSF thermal shift, pooled statement; assay type: binding, human; conditions: span over Brd2(1) and Brd2(2)
# Method: as §4, with “Mx3005P.” for “Mx3005P. Compounds were added at a final concentration of 10 μM for the LightCycler®480 and 30 μM for Mx3005P, while the tetra acetylated histone peptide was added to a final concentration of 100 μM and 300 μM respectively.”, “Each sample was run in triplicates.” left out
# (§7) Collected data was analysed by IGOR Pro 6, a scientific software tool from Wave Metrics, Inc. Analysis was done following the recommendations of Niesen et al.. Fluorescence intensity was plotted as a function of temperature, generating a sigmoidal curve described by a two-state transition from folded to unfolded protein. […]
# [18] = system: Brd2 methionine to alanine mutants; assay: DSF thermal shift, pooled statement; assay type: binding, human; conditions: span over both mutants
# Method: as §4, with “Mx3005P.” for “Mx3005P. Compounds were added at a final concentration of 10 μM for the LightCycler®480 and 30 μM for Mx3005P, while the tetra acetylated histone peptide was added to a final concentration of 100 μM and 300 μM respectively.”, “Each sample was run in triplicates.” left out
# as §7
# [19] = molecular target: T11, Brd2(2)*(Val376Ala) (Homo sapiens, UniProt P25440, V376A); assay: DSF thermal shift; assay type: binding; conditions: mutant
# T11 construct: Plasmids of the eight single BET bromodomain constructs Brd2(1), Brd2(2), Brd3(1), Brd3(2); His6 (N); made in house; host or cells: E. coli BL21(DE3)
# [20] = molecular target: T12, Brd2(1)*(Val103-Ala) (Homo sapiens, UniProt P25440, V103A); assay: DSF thermal shift; assay type: binding; conditions: mutant
# T12 construct: Plasmids of the eight single BET bromodomain constructs Brd2(1), Brd2(2), Brd3(1), Brd3(2); His6 (N); made in house; host or cells: E. coli BL21(DE3)
# T12 sequence (P25440 74-180 V103A limits assumed): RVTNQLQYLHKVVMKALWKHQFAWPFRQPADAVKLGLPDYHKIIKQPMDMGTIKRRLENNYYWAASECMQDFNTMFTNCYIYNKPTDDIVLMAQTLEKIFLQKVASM
# T8 sequence (P25440 74-180 M165A limits assumed): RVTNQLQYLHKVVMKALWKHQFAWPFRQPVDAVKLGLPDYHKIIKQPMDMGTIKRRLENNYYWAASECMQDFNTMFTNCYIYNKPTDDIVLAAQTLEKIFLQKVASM
# T7 sequence (P25440 344-453 M438A limits assumed): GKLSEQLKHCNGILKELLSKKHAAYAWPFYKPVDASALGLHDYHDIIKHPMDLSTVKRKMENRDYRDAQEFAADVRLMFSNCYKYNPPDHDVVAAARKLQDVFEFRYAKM
# T5 sequence (P25440 344-453 limits assumed): as the sequence (P25440 344-453 M438A limits assumed) above, with A95M counted along it
# T2 sequence (P25440 74-180 limits assumed): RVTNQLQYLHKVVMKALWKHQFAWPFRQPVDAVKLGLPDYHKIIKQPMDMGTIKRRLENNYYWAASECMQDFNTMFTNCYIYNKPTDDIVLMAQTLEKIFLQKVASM
# T3 sequence (P25440 344-453 W370F limits assumed): as the sequence (P25440 344-453 M438A limits assumed) above, with W27F, A95M counted along it
# T9 sequence (P25440 74-180 M165L limits assumed): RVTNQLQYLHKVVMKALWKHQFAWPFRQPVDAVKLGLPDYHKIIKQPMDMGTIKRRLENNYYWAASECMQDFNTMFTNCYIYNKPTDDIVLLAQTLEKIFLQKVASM
# T4 sequence (P25440 74-180 W97F limits assumed): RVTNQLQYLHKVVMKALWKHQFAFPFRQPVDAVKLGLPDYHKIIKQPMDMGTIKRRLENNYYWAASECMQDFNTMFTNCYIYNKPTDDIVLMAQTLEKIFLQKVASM
# T11 sequence (P25440 344-453 V376A limits assumed): as the sequence (P25440 344-453 M438A limits assumed) above, with V33A, A95M counted along it
# T10 sequence (P25440 344-453 M438L limits assumed): as the sequence (P25440 344-453 M438A limits assumed) above, with A95L counted along it
# T1 sequence (P25440 74-180 W97H limits assumed): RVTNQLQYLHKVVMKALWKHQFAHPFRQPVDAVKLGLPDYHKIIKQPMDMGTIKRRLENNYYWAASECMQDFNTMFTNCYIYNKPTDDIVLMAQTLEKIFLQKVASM
# T6 sequence (P25440 344-453 W370H limits assumed): as the sequence (P25440 344-453 M438A limits assumed) above, with W27H, A95M counted along it
compound,measurement,setting,value
COC(=O)CC1N=C(c2cccc3[nH]ccc23)c2cc(OC)ccc2-n2c(C)nnc21 (centres unmarked) [Compound 18],ΔTm Brd2(1)*(Tryp097-His),[1],0.6 ± 0.3 K
same,ΔTm Brd2(1),[2],6.8 ± 0.6 K
same,ΔTm Brd2(2)*(Tryp370-Phe),[3],5.1 ± 0.1 K
same,ΔTm Brd2(1)*(Tryp097-Phe),[4],1.9 ± 0.5 K
same,ΔTm Brd2(2),[5],7.7 ± 0.2 K
same,ΔTm Brd2(2)*(Tryp370-His),[6],2.7 ± 0.4 K
same,Kd,[7],~300 nM
same,Kd,[8]; Kd Brd2(2),~90 nM
"COc1ccc(OC)c(S(=O)(=O)Nc2ccc3c(c2)CN(C)C(=O)N3)c1 [Compound 51, 2,5-dimethoxy-N-(3-methyl-2-oxo-1,2,3,4-tetrahydroquinazolin-6-yl)benzenesulfonamide]",Selectivity for mutant relative to wild type,"[9]; Brd2(2) methionine to alanine mutant vs Brd2(2), ITC Kd",six fold selectivity
same,Fold higher affinity for mutant than wild type,"[9]; Brd2(2)* methionine to alanine mutant vs wild type Brd2(1), ITC Kd",twelve fold higher affinity; also recorded: three-fold higher affinity
same,Kd,"[9]; ITC 25° C., read-out: Kd methionine to alanine mutation of Brd2(2)",~260 nM
same,ΔTm Brd2(1),[2],1.1 ± 0.2 K
same,ΔTm Brd2(2),[5],2.1 ± 0.3 K
same,Fold higher affinity for mutant than wild type,"[10]; Brd2(1)* methionine to alanine mutant vs wild type Brd2(2), ITC Kd",three-fold higher affinity; also recorded: twelve fold higher affinity
same,Selectivity for mutant relative to wild type,"[10]; Brd2(1)*(Met165Ala) vs Brd2(1), ITC Kd",six-fold selectivity
same,Kd,[10]; ITC 25° C.,~500 nM
same,Kd,[11],~3200 nM
same,Kd,[8]; read-out: Kd Brd2(2),~1600 nM
same,ΔTm Brd2(1)*(Met165-Ala),[12],4.6 ± 0.2 K
same,Solubility,[13],good solubility
same,ΔTm Brd2(1)*(Met165-Leu),[14],2.9 ± 0.2 K
same,ΔTm Brd2(2)*(Met165-Leu),[15],5.2 ± 0.3 K
same,ΔTm Brd2(2)*(Met165-Ala),[16],6.6 ± 0.3 K
same,ΔTm wild types of Brd2,[17],1-2 °C
same,ΔTm methionine to alanine mutants of Brd2,[18],4.5-6.6 °C
CCNC(=O)CC1N=C(c2ccc(Cl)cc2)c2cc(OC)cc(C)c2-n2c(C)nnc21 (centres unmarked) [Compound 19],ΔTm Brd2(1),[2],0.5 ± 0.2 K
same,ΔTm Brd(2)*(Val376-Ala),[19],1.3 ± 0.1 K
same,ΔTm Brd2(2),[5],3.8 ± 0.1 K
same,ΔTm Brd2(1)*(Val103-Ala),[20],0.4 ± 0.3 K
